In one data set the test system is HIVLAI. Put plainly: Anti-HIV assay, protection from HIV-induced cell death. Format: cell-based. The conditions noted are these: read-out: ED50 (concentration that inhibits HIV-induced cell death by 50%); HIVLAI, MT-2 cells, 72 hr. The procedure:
Anti-HIV assays were performed as described above. […] The compounds were then two-fold serially diluted in triplicate. To each 50 μl of diluted compound, 50 μl of HIVLAI was added and the virus-drug mixture was incubated for 1 hr at 37° C. […] Final multiplicity of infection (MOI) was 1-5. Cells were harvested to quantitate cytopathic effect using a neutral red dye assay as described.

The target of another data set is HIV-1 IN (Human immunodeficiency virus type 1 group M subtype B, UniProt P12497). The settings on record: read-out: IC50 (IN dependent disintegration); purified HIV IN, MnCl2.
A further data set relates to HIV-1NL4-3. Put plainly: Anti-HIV cytopathicity assay against parental molecular clone. In kind it is cell-based. The procedure: (§1) Cloning and sequencing of virus from the HIVNL4-3 passaged in the presence of 8 μM L-chicoric acid was undertaken to determine the molecular basis for resistance to L-chicoric acid and to isolate a resistant HIV clone.
Assays, as described above, to determine the ED50 for a given compound against the molecular clone HIVNL4-3clone1-D4 and the parental clone HIVNL4-3 give an indication of the selectivity of the compound for inhibition of HIV replication through IN. Resistance to a compound, as measured by an increased ED50, by clone HIVNL4-3clone1-D4, implies selectivity of the compound for IN. Thus clone HIVNL4-3clone1-D4 can be used to screen candidate IN inhibitors for selectivity.
A general note: Protection from cytopathic effect is a common read-out in antiviral testing.

The next data set relates to MT-2 cells. The conditions noted are these: 48 hours. From the text: The chemical structures of the compounds are illustrated in FIGS. 1-4. In FIG. 1a, the D- and meso-isomers of L-chicoric acid are identical in this illustrative format. […] The first compound in Table 1, L-chicoric acid, a previously described DCTA, is included for reference. LD5, the 5% lethal dose, is a measure of the toxicity of compound to living, cultured cells. It is the concentration at which cell growth is inhibited by 5%. […] Most simply understood, disintegration is a term used to refer to the reverse of integration.
Cell toxicity and anti-HIV assays were performed as reported above. […] Cells were incubated with drug for 48 hours at 37° C., then harvested for cell viability in a neutral red dye assay as described.

A further data set deals with HIV-1NL4-3clone1-D4. Format: cell-based. The settings on record: for Fold Change (ED50 resistant clone vs HIVNL4-3): HIVNL4-3clone1-D4 vs HIVNL4-3; for efficacy against the L-chicoric acid resistant clone: compared with parental HIVNL4-3; for EC50: mean of triplicate infections, read-out: ED50 HIVNL4-3clone1-D4. The procedure:
as §1
This cloning was accomplished through site-directed mutagenesis introducing several silent mutations immediately upstream and downstream of the integrase gene. These mutations generated two unique restriction sites: an upstream SacII and a downstream XbaI (FIG. 15). Introduction of these mutations allowed the entire integrase gene with only minimal upstream and downstream nucleotides to be digested and “swapped” between drug-resistant and drug-sensitive clones.

Data set [1] relates to HIVNL4-3 passaged in the presence of 8 μM L-chicoric acid. Put plainly: Cytopathicity assay against virus passaged in 8 μM L-chicoric acid. In kind it is cell-based, HIV. The settings on record: FIG. 14. As for the experimental part: HIVNL4-3 plasmid (a gift from Dr. P. Krogstad, UCLA, Los Angeles, Calif.), was transfected in HeLa cells using Lipofectin® (Gibco/BRL). Excess DNA was removed by washing and cells were co-cultured with H9 cells for 18 hours. The H9 cells were removed and re-cultured in growth medium. When the culture was 100% positive for HIV antigens by indirect immunofluorescence, the virus was inoculated onto H9 cells and incubated at 37° C. for several weeks in the presence of 2 μM L-chicoric acid. When this culture was 100% positive the virus was isolated and one aliquot was passaged in a similar manner in 4 μM L-chicoric acid. Finally, virus was cultured in the presence of 8 μM L-chicoric acid and the resultant virus filter-clarified, aliquoted, and stored at −70° C.
as §1

Where [2] appears, read: mean of triplicate infections, read-out: ED50 HIVNL4-3.

Read-outs that look alike come from different tables or passages of the source.

On to “Di-3,4-dihydrodihydroxybenzylidine succinic acid [Compound 38]”, for which the EC50 in the data set on HIVLAI came out at 4400 nM. The IC50 at HIV-1 IN was found to be 858 nM.
With `O=C(O[C@@H](C(=O)O)[C@@H](OC(=O)c1cc(O)c(O)c(O)c1)C(=O)O)c1cc(O)c(O)c(O)c1` [Compound 25], the EC50 in the data set with HIVLAI came to 660 nM; in the data set with HIV-1NL4-3 (setting [2]), 290 nM; in the data set with HIV-1NL4-3clone1-D4 it was 31200 nM. The “LD5 (5% lethal dose, concentration at which cell growth is inhibited by 5%)” value in the data set on MT-2 cells is 2.7 µM. Besides, in the data set on HIV-1NL4-3clone1-D4, the “Fold Change (ED50 resistant clone vs HIVNL4-3)” value (shortened to “Fold Change”) is given as 107. In the data set on HIV-1NL4-3clone1-D4, the “efficacy against the L-chicoric acid resistant clone” value (shortened to “efficacy”) is “reduced efficacy”.
As for Dicaffeoyl-L-tartaric acid [Compound 1], in data set [1], the “resistance of passaged virus to the compound” value was “completely resistant”. The EC50 with HIV-1NL4-3 (control virus passaged without inhibitor, FIG. 14, read-out: ED50 against HIVNL4-3 control virus) stood at 400 nM; in the data set on HIV-1NL4-3 (setting [2]) it was 780 nM; with HIV-1NL4-3clone1-D4, 61200 nM. In addition, the “efficacy” value in the data set on HIV-1NL4-3clone1-D4 is reported as “reduced efficacy”; in the data set on HIV-1NL4-3clone1-D4 (listed as L-chicoric acid) it was “resistant”.
Turning to `O=C(O[C@@H](C(=O)O)[C@@H](OC(=O)c1ccc(O)c(O)c1)C(=O)O)c1ccc(O)c(O)c1` [Compound 26], the EC50 with HIVLAI was 950 nM. The EC50 in the data set on HIV-1NL4-3 (setting [2]) came out at 820 nM. Moreover, the “LD5 (5% lethal dose, concentration at which cell growth is inhibited by 5%)” value in the data set with MT-2 cells stood at 90 µM. In the data set on HIV-1NL4-3clone1-D4, the “Fold Change” value is 64, the “efficacy” value is reported as “reduced efficacy” and the EC50 was 52500 nM.
Regarding `O=C(Cc1ccc(O)c(O)c1)O[C@@H](C(=O)O)[C@@H](OC(=O)Cc1ccc(O)c(O)c1)C(=O)O` [Compound 28], the EC50 in the data set with HIVLAI was 35000 nM. In the data set on HIV-1NL4-3 (setting [2]), the EC50 amounted to 15600 nM. Moreover, in the data set on MT-2 cells, the “LD5 (5% lethal dose, concentration at which cell growth is inhibited by 5%)” value worked out at 70 µM. Moreover, in the data set on HIV-1NL4-3clone1-D4, the “Fold Change” value is recorded as 4, the “efficacy” value is “reduced efficacy” and the EC50 worked out at 62500 nM.

The values are drawn from patent US20050049242A1 (priority 2000, published 2005).
